Data: publication PMC5612656, “In vitro and in vivo effects of 2,4 diaminoquinazoline inhibitors of the decapping scavenger enzyme DcpS: Context-specific modulation of SMN transcript levels” (PLoS ONE, 2017)
Several values for one entry are separate records, joined by “and”; a condition that tells them apart may be missing. Equal values may be shown once.

Assays:
[1] = cited from earlier work
Smn protein = Smn protein in mouse tissues by Western blot; assay type: in vivo; conditions: 2B/- SMA mice
From the text: (§1) At P1, pups were counted.

2B/- SMA mice [2] = assay: Survival and body weight study in 2B/- SMA mice; assay type: in vivo, mouse
[3] = system: SMN transcripts in SMA-derived lymphoblasts; assay: SMN transcripts by ddPCR in SMA-derived lymphoblasts; assay type: cell-based, human
[4] = system: SMN transcripts in HEK-293T cells; assay: SMN transcripts by ddPCR in HEK-293T cells; conditions: HEK293T cells
N2a cells = assay: RNA-Seq (polyA RNA) of N2a neuroblastoma cells; assay type: cell-based, mouse
Description: Cells were then pelleted and lysed in RLT and the RNA was purified according to the protocol for the Qiagen miRNeasy kit to separate and enrich small RNA and large (>200 nt) fractions separately. […] RNA quality was also validated using qPCR for DcpS responsive genes. RNA fractions were used for cDNA library preparation which was performed using Truseq mRNA v2 reagents or TailorMix miRNA reagents (RS-122-2101 Illumina, San Diego CA, USA and TM302 Seqmatic, Fremont CA, USA). Libraries were run on a Nextseq 500 (Illumina) using a paired-end run (2x75bp) generating ~60 million reads per library for the mRNA-seq and 1x75bp generating ~5 million reads per library for the miRNA-seq. Demultiplexing, alignment, and differential analysis for the mRNA-seq were performed as described below. For the miRNA alignment, briefly the sequences between 16 and 35 nucleotides with average phred score ≥ 30 were retained for analysis. The reads were first mapped to mouse miRNAs using Bowtie without allowing for mismatches. Instead of discarding the remaining reads, we explored the possibilities of RNA editing to include potential isomiRs. These reads were mapped to miRNAs that have at most 1 base mismatch, a substitution at the 5’ or 3’ ends, or have 1 or 2 extra bases at either ends. Although 1 base mismatch would include 1 base substitution/deletion/addition at the ends, we made sure that 1 base mismatch was inside the miRNA and that all categories were mutually exclusive. Reads mapping to protein coding exons and other small RNAs were removed prior to mapping to miRNAs. Reads that uniquely mapped to miRNAs were considered and were profiled as: 1) identical to miRNAs, 2) perfect match to miRNAs but are of shorter length (no more than 5 bases short), 3) mapping to miRNAs with 1 substitution, 1 or 2 extra bases at 3’ and 5’ ends and with those with at most 1 mismatch (occurring inside the sequence and not on ends), 4) mapping to the precursor miRNA. Thus, steps 2–4 constitute “IsomiRs”-alternative forms of the mature miRNAs. We merged the counts of reads identical to a miR and those mapping to isomeric forms as they are found to have identical/very similar functions. The unaligned reads were mapped to the mouse genome and an internally developed database of rRNAs from bacteria, fungi, plant and eukaryotes to detect presence of contaminants. For differential analysis of miRNAs, only those with counts of ≥5 in at least 1/3rd samples (treatment vs control) were considered for analysis. The counts were normalized and analyzed using EdgeR [19] packages in R-Bioconductor. The P-values were corrected by FDR for multiple testing and miRNAs with FDR ≤15% and |FC|>1.5 were considered to be differentially expressed.
The differentially regulated gene lists for both the spinal cord mRNA-seq and the N2a mRNA-seq results with a corrected P-value less than 0.05 were loaded into IPA and analyzed against the Ingenuity Knowledgebase, Ingenuity Expert Information, and with experimentally observed confidence.

2B/- SMA mice [5] = conditions: cited from earlier work
[6] = system: Smn transcripts in spinal cord, skeletal muscle, liver; assay: Smn transcripts in mouse tissues by ddPCR; assay type: in vivo
From the text: as §1

[7] = 1 μM, 24 hours, 18,409 detectable

## Nc1nc(N)c2c(OCC3CCN(Cc4c(Cl)cccc4Cl)CC3)cccc2n1 [RG3039]
[1]
  physicochemical character (lipophilicity, basicity): highly lipophilic and dibasic
  tissue accumulation compared to plasma: significantly accumulates in all tissues compared to plasma
Smn protein
  Smn protein levels in muscle: no statistically significant change
  Smn protein levels in spinal cord: no statistically significant change
2B/- SMA mice [2]; P < 0.05 by either test
  effect on survival, RG3039 compared to PF-06738066: slightly greater effect on survival than PF-06738066
2B/- SMA mice [2]; b.i.d. i.p. P4-P20, RG3039 6 mg/kg, PF-06738066 10 mg/kg, P < 0.0001 Mantel-Cox or Gehan-Breslow-Wilcoxon
  effect on survival of SMA mice compared to vehicle-treated SMA mice: statistically significant beneficial effect on survival
[3]; active DAQ-DcpSi vs 7-methyl analogues
  changes in SMN transcripts: modest changes in SMN transcripts
[3]; example experiment of Fig 5
  SMNΔ7 transcripts: no decrease in SMNΔ7 transcripts
[4]; 8 or 24hr
  SMN2 transcript increase at later time points: much reduced or absent
[4]; after 4h of treatment
  increase in SMN2 transcript: ~ 20%
N2a cells; 1 μM, 24 hours
  differential expression of Smn and DcpS: neither Smn nor DcpS itself were differentially expressed
  down-regulated genes as share of differentially expressed genes: 41.7%
  genes changed by less than one Log2 units (2-fold) in either direction: 1,489 genes
  genes changed by less than one Log2 units (2-fold), share: 70.9%
  genes changed by more than 2 log2 units (4-fold) in either direction: 80 genes
  genes changed by more than 2 log2 units (4-fold), share: 3.8%
  genes down-regulated by compound (P < 0.05): 878 genes
  pathways significantly affected (P < 0.05), Ingenuity Pathway Analysis: 53 pathways
  proportion of detectable genes affected: > 11% and 11.4%
  upregulated genes as share of differentially expressed genes: 58.3%
N2a cells; [7]
  down-regulated genes as percentage of total detectable genes: 4.77%
  upregulated genes as percentage of total detectable genes: 6.66%
N2a cells; 1 μM, 24 hours, 18,409 detectable genes
  genes differentially expressed compared to DMSO (P < 0.05): 2,104 genes
N2a cells; RG3039 vs DMSO, adjusted p-value 1.05E-117
  log2(fold-change), gene 1600020E01Rik: 2.871
N2a cells; RG3039 vs DMSO, adjusted p-value 1.14E-85
  log2(fold-change), gene Krcc1: -2.734
N2a cells; RG3039 vs DMSO, adjusted p-value 1.54E-112
  log2(fold-change), gene Apba1: -5.025
N2a cells; RG3039 vs DMSO, adjusted p-value 3.09E-99
  log2(fold-change), gene Rnf157: -3.057
N2a cells; RG3039 vs DMSO, adjusted p-value 4.32E-66
  log2(fold-change), gene Stra6: -2.291
N2a cells; decreased, P = 0.00251
  Paqr8 log2 fold change: 0.657
N2a cells; increased, P = 0.000012
  Dpm3 log2 fold change: 0.884
N2a cells; increased, P = 1.89 x 10^−30
  Pigw log2 fold change: 1.54
2B/- SMA mice [5]
  Gems in nuclear compartment of choline acetyltransferase-positive spinal cord neurons: reported to increase
  SMN protein levels in the CNS or peripheral tissues: absence of any change in SMN protein levels
  survival, motor function, neuromuscular junction architecture and electrophysiology: improve survival, motor function, neuromuscular junction architecture and electrophysiology
  tissue DcpS activity: profound and prolonged inhibition
[6]; 2B/- SMA mice, P4-P16 BID i.p.
  Smn transcripts (exons 5/6, exons 7/8, SmnΔ7) in tissues: significant increases in Smn transcripts in all tissues
[6]; 2B/- mice
  SmnΔ7 transcripts in spinal cord: trended to increase
